Assay results from ChEMBL document CHEMBL1201862, “PubChem BioAssay data set” (2004).
Active and inactive are the calls of the source.

Assays:
Protein skinhead-1 = target: T1, Protein skinhead-1 (Caenorhabditis elegans, UniProt P34707); format: functional
T1 sequence (P34707 whole entry): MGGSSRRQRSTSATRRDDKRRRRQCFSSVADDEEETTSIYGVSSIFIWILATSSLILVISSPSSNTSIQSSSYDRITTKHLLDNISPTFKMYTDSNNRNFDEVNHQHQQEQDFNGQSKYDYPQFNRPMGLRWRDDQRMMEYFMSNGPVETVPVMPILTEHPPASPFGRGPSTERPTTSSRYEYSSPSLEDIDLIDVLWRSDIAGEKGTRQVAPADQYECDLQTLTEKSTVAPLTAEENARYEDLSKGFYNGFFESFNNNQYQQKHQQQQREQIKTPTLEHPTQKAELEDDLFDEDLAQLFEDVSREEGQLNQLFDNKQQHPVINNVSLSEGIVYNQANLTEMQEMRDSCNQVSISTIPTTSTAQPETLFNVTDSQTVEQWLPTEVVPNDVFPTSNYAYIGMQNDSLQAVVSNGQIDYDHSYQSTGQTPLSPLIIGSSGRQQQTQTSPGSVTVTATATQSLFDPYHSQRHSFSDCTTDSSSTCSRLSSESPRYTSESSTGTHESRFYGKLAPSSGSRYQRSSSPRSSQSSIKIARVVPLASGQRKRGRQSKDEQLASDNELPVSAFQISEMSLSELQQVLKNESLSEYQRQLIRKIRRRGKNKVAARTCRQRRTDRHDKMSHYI

[1] = C. albicans growth with fluconazole, confirmation, fluorescence, retest (AID 2467); format: functional, cell-based
[2] = NIH-3T3 fibroblast cytotoxicity, dose response, cytotoxicity control, cell-based, fluorescence, Alamar Blue, secondary assay (AID 2327); format: functional;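 further: NIH-3T3 mouse fibroblasts cultured with fluconazole at 8 µg/mL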
[3] = Shn3 3'UTR reporter inhibitors, dose response, cell-based, Clone20 osteoblasts, firefly luciferase, cherry-picked (AID 624132); format: functional;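 further: firefly luciferase luminescence from reporter carrying the Shn3 3'UTR in osteoblasts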
[4] = growth suppression of beta-catenin-knockout colon cells, dose response, cell-based, HCT116, human colon tumor (AID 1045); format: functional;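 further: HCT116 colon tumor cells with beta catenin knocked out; cells exposed to compound for 60 hours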
[5] = growth suppression of PTEN-null colon cells, dose response, cell-based, HCT116 PTEN knockout (AID 1047); format: functional;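 further: HCT116 colon tumor cells with PTEN knocked out; cells exposed to compound for 60 hours before readout; potency for loss of cell viability measured by luminescence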
[6] = control 3'UTR Renilla luciferase suppression, dose response, counter-screen for Shn3 inhibitor project, cell-based, Clone20-Shn3RL, cherry-picked (AID 624133); format: functional
[7] = HepG2 cell cytotoxicity, dose response, cytotoxicity control for Shn3 inhibitor project, CellTiter-Glo, cherry-picked (AID 624134); format: functional, cell-based
Streptokinase A = target: T2, Streptokinase A (Streptococcus pyogenes serotype M1, UniProt P10520); experiment: S. pyogenes streptokinase expression inhibitors, potency, dose response, plasminogen activation absorbance, OD405 (AID 1914); format: functional, Streptococcus pyogenes M1 GAS;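 further: secreted streptokinase activity via plasminogen activation per viability signal from cell pellet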
T2 sequence (P10520 whole entry): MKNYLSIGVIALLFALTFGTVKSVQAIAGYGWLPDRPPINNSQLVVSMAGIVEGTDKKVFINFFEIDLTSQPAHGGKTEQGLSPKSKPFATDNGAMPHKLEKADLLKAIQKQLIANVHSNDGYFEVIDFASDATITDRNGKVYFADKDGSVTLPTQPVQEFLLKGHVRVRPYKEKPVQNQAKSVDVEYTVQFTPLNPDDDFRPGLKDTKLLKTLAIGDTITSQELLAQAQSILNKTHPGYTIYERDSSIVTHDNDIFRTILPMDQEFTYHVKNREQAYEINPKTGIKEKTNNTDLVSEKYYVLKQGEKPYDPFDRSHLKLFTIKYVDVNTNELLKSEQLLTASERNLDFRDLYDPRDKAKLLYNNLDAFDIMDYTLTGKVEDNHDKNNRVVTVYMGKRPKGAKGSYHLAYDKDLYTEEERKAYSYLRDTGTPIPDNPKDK

[8] = test system: Streptococcus sp. 'group A'; experiment: growth inhibition of control SK(-) GAS strain, dose response, counter-screen for streptokinase expression inhibitor project, luminescence, kanamycin, BacTiterGlo, confirmation (AID 1900); format: functional, organism-based
Streptococcus = experiment: Group A Streptococcus viability loss, dose response, counter-screen for streptokinase expression inhibitor project, luminescence, BacTiterGlo (AID 1915); format: functional, organism-based;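 further: potency for reduction of bacterial viability or growth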
[9] = target: T3, Replicative DNA helicase DnaB (Mycobacterium tuberculosis, UniProt P9WMR3); experiment: DnaB intein splicing inhibitors, dose response, biochemical, cell-free fluorescence (AID 449749); format: functional
T3 sequence (P9WMR3 whole entry): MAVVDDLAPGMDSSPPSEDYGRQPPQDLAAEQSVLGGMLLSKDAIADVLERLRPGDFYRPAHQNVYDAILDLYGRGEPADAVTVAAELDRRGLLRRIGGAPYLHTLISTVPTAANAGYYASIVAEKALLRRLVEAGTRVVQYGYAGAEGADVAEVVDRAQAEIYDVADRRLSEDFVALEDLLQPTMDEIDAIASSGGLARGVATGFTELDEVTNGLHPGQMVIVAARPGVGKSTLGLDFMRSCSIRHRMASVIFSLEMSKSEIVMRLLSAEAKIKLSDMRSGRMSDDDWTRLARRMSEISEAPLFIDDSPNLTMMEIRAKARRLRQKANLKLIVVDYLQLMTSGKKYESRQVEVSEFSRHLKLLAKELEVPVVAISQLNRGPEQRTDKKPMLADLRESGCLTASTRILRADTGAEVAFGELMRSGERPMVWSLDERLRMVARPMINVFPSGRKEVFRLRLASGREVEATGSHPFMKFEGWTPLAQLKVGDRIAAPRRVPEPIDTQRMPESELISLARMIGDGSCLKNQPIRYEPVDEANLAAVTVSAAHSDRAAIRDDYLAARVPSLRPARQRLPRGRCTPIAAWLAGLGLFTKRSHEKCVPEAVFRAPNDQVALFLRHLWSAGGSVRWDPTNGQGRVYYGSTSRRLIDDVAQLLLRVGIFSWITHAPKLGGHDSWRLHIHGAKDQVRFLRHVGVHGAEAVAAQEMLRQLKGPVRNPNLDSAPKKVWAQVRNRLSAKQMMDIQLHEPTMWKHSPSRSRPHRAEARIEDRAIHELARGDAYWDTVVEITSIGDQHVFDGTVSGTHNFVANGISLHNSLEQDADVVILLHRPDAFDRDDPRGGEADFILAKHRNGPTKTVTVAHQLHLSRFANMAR

Protein RecA = target: T4, Protein RecA (Mycobacterium tuberculosis, UniProt P9WHJ3); experiment: Fluorescence Cell-Free Homogeneous Dose Retest to Identify Inhibitors of RecA-Intein Splicing Activity. [Related pubchem assays (depositor defined):AID2097, AID2223, AID489010, AID492950]; format: functional
T4 sequence (P9WHJ3 whole entry): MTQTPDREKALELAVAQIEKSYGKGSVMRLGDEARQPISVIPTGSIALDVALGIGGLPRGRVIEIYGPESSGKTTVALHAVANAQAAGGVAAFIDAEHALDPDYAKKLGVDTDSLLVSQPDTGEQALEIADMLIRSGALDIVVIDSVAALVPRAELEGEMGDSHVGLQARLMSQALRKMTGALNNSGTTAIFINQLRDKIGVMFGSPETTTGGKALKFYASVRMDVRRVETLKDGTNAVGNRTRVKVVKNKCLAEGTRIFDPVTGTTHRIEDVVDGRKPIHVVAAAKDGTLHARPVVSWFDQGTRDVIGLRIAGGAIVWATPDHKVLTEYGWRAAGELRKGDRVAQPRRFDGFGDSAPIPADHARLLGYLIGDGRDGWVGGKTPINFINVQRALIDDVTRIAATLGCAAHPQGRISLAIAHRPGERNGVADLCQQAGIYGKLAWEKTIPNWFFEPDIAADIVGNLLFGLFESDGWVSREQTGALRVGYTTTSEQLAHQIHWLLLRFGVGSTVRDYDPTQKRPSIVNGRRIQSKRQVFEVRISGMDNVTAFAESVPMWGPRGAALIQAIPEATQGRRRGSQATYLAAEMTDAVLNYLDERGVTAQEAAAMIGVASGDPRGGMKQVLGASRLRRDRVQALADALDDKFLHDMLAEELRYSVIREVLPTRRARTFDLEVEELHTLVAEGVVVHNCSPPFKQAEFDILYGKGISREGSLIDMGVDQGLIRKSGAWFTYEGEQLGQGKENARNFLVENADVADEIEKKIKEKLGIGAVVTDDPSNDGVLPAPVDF

[10] = inhibitors of intracellular T. cruzi replication, confirmation, NIH3T3 host cells, beta-gal luminescence (AID 2044); format: functional, cell-based;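 further: intracellular parasites grown in NIH/3T3 mouse fibroblasts as host cells; luminescent beta-galactosidase reporter signal from transgenic T. cruzi replicating inside host cells; inhibitors lower the luminescence signal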
[11] = cytotoxicity toward NIH3T3 fibroblasts, dose response, counter-screen, cell-based, ATP luminescence, mouse fibroblasts (AID 2010); format: functional;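 further: cells exposed to compound for about 90 hours before reading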
[12] = target: T5, Heat shock factor protein 1 (Mus musculus, UniProt P38532); experiment: inhibition of MG132-induced HSE-luciferase signal, confirmation, cell-based, NIH3T3, luminescence, dose retest (AID 2382); format: functional;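 further: NIH3T3 fibroblasts with HSF1-driven luciferase reporter stressed by proteasome inhibitor MG132; luminescence from HSF1-driven luciferase expression after 8 hours of MG132 stress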
T5 sequence (P38532 whole entry): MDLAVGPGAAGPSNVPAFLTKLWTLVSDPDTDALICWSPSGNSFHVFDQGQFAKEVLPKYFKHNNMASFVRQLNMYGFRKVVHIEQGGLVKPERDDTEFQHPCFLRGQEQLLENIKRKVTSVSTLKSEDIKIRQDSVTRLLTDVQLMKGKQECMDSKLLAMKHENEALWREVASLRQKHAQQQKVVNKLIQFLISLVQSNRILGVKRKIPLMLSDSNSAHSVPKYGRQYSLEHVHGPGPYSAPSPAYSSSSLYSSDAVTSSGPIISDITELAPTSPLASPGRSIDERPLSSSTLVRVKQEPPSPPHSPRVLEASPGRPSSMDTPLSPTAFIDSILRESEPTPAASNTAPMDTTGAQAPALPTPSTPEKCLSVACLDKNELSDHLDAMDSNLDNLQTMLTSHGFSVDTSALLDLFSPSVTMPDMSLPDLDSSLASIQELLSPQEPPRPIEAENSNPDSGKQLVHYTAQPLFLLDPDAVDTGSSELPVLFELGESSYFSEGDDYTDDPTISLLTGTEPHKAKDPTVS

Cytochrome P450 2C9 = Cytochrome P450 2C9 (Homo sapiens, UniProt P11712)
[13] = MC4R antagonists, dose response, counter-screen for LGR2 antagonist project, cell-based, plate reader, cherry pick (AID 743444); format: functional;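 further: transfected HEK 293 cells stimulated with alpha-MSH peptide; potency of inhibitors of the alpha-MSH evoked signal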
[14] = LGR2 antagonists, dose response, cell-based, HEK293, CRE-luciferase reporter, cherry pick, set 2 (AID 743343); format: functional;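 further: transfected cells were stimulated with diluted bursicon conditioned medium after compound addition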
Cytochrome P450 3A4 = Cytochrome P450 3A4 (Homo sapiens, UniProt P08684);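 further: CYP3A4 tested as one member of a cytochrome P450 panel screen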
Chain of Cytochrome P450 3A4 (P08684 whole entry): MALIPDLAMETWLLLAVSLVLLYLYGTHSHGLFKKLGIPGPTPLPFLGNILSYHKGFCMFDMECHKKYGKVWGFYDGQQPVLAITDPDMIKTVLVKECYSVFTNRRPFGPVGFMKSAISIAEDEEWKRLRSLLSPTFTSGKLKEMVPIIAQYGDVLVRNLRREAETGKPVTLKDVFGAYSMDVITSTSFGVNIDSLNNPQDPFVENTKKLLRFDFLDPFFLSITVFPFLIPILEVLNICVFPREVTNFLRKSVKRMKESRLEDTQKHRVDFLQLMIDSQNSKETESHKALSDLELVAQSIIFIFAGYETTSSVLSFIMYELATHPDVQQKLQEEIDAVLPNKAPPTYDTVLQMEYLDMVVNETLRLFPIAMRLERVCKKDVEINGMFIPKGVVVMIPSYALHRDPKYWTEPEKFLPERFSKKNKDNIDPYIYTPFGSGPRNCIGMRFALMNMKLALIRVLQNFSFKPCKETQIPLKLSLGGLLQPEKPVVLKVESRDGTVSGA

Chain of Cytochrome P450 2C9 (P11712 whole entry): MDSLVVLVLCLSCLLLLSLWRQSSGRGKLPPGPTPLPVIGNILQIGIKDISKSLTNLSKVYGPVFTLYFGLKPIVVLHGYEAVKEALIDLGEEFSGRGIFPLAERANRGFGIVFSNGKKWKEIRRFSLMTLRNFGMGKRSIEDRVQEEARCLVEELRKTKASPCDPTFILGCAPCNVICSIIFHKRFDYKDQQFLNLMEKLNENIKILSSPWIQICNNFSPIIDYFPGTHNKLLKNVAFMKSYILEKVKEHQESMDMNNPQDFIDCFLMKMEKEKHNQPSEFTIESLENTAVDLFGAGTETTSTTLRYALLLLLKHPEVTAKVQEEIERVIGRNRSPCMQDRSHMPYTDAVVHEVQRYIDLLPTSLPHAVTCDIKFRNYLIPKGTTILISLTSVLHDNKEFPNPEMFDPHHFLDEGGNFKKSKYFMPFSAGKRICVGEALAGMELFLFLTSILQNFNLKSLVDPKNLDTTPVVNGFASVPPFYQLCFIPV

Cc1cc2ccccc2n1CCNC(=O)C1CC1
IC50 (Protein skinhead-1): > 100 µM (inactive)

C/C(=N\OCc1ccc(C#N)cc1)c1cc2ccccc2o1
EC50 [1]: > 38 µM (not active)
IC50 (Protein skinhead-1): 64 µM (inactive)
EC50 [2]: > 160 µM (inconclusive)

COc1ccccc1/C=C1\CCCC2=C1Nc1nnnn1C2c1ccccc1OC (configuration not stated)
AC50 [3]: 36 µM (active)
EC50 [4]: 6.96 µM (active)
EC50 [5]: 8.85 µM (active)

Cc1ccccc1Nc1nnc(SCC(=O)NC(=O)Nc2ccc3c(c2)OCCO3)s1
EC50 [4]: 14.5 µM (active)
EC50 [5]: 14.6 µM (active)

O=C(/C=C/c1ccc(OCc2ccccc2)c(OCc2ccccc2)c1)c1cccnc1
AC50 [6]: 19.3 µM (active)
AC50 [3]: 5.19 µM (active)
EC50 [4]: 6.92 µM (active)
EC50 [5]: 8.72 µM (active)
AC50 [7]: 40.5 µM (active)

O=C(CSc1nc[nH]n1)Nc1ccc(Cl)c(Cl)c1
IC50 (Protein skinhead-1): > 100 µM (inactive)

O=C(CSc1nnc(COc2cccc3ccccc23)o1)N1c2ccccc2CCc2ccccc21
IC50 (Protein skinhead-1): > 100 µM (inactive)

CC1CCN(S(=O)(=O)c2ccc3c(c2)oc(=O)n3CC(=O)N2c3ccccc3CC2C)CC1 (configuration not stated)
EC50 [4]: 30.9 µM (active)
EC50 [5]: 39.5 µM (active)

CC1(Cc2cccc(C(F)(F)F)c2)C(=O)Nc2ccc(-c3ccc(F)c(Cl)c3)cc21 (configuration not stated)
IC50 (Protein skinhead-1): > 100 µM (inactive)

Cc1c(C)n(Cc2ccc(F)cc2)c2ccc(C(=O)N3CCN(c4ccccn4)CC3)cc12
EC50 (Streptokinase A): 146 µM (inconclusive)
IC50 (Protein skinhead-1): > 100 µM (inactive)
EC50 [8]: 16.5 µM (active)
EC50 (Streptococcus): 28.4 µM (active)

COC(=O)C(C#N)C(c1cccnc1)c1c(C)n[nH]c1O (configuration not stated)
AC50 [9]: 3.08 µM (active)
EC50 (Protein RecA): 1.2 µM (active)

COc1cc(/C=C(\C#N)c2nc3ccccc3o2)ccc1O
AC50 [9]: > 380 µM (inactive)
EC50 (Protein RecA): 2.41 µM (active)

O=C(CCl)N1N=C(c2cccs2)CC1c1ccco1 (configuration not stated)
AC50 [9]: 25.1 µM (active)
EC50 (Protein RecA): 4.21 µM (active)
EC50 [10]: 1.98 µM (active)
EC50 [11]: 4.92 µM (active)
EC50 [12]: 6.29 µM (active)

Cc1ccccc1OCc1nc2ccccc2c(=O)n1/N=C/c1c[nH]nc1-c1ccc(Br)cc1
EC50 [4]: 7.51 µM (active)
EC50 [5]: 7.05 µM (active)

Cn1nccc1-c1ccc(C(=O)Nc2cccc(NS(C)(=O)=O)c2)c2occc12
IC50 (Protein skinhead-1): > 100 µM (inactive)

C(=C1/CCCC2=C1Nc1ncnn1C2c1ccccc1)/c1ccccc1 (configuration not stated)
AC50 (Cytochrome P450 2C9): 7.94 µM (inconclusive)
EC50 [4]: 2.58 µM (active)
EC50 [5]: 3.45 µM (active)
EC50 [10]: 3.45 µM (active)
EC50 [11]: 6.87 µM (active)

C=CCNC(=O)c1c(Cl)nc(C)c([N+](=O)[O-])c1C
AC50 [13]: 55.3 µM (active)
AC50 [14]: 42.7 µM (active)

CCc1sc(N(C(=O)Cc2ccccc2)c2cccc(F)c2)nc1-c1ccc(C)cc1
EC50 (Streptokinase A): 32.6 µM (active)
AC50 (Cytochrome P450 3A4): 17.8 µM (inconclusive)
AC50 (Cytochrome P450 2C9): 6.31 µM (inconclusive)
IC50 (Protein skinhead-1): > 100 µM (inactive)
EC50 (Streptococcus): > 150 µM (not active)
